Earlier results, collected in patent US20190046547A1, “COMPOSITIONS AND METHODS FOR TREATING CHRONIC WOUNDS” (Hackensack University Medical Center, priority 2016, published 2019).

Test system: infected pneumonectomy cavity
Conditions: single case

## OC[C@H]1O[C@@](CO)(O[C@H]2O[C@H](CO)[C@@H](O)[C@H](O)[C@H]2O)[C@@H](O)[C@@H]1O [granulated sugar]
  adverse events: severe hyponatremia and acute renal failure
